From patent US9179682B2, “Biocides and apparatus” (A.Y. Laboratories Ltd., priority 2004, dated 2015)

Experiment: Reduction of Na2S: total sulfur and sulfate after addition of oxidizer, Series 7
Settings: 100 ml DI water with ~5 mg sodium sulfide; several days after addition of oxidizer
Protocol: A series of containers each containing 100 ml DI water in which ˜5 mg of sodium sulfide was dissolved were prepared. To each container an appropriate amount of an oxidizer or a control solution was added as follows: • a. […] Monochloroamine (MCA) formed from ammonium sulfate and NaOCl (1:1 molar ratio, each component pre-diluted before mixing, 15 ppm as total chlorine). • d.
Samples were analyzed for total sulfur and for sulfate several days after addition of oxidizer.

O=N[O-].[Na+] [Test A, NaNO2]
% S remaining: 100%
